Measurements reported in PubChem BioAssay (NCI).
Where “and” joins values, the source holds several entries; their conditions need not be identical. Equal entries are not always repeated.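 96-well plates; 48 h exposure; 5 concentrations. Endpoints by linear interpolation between flanking doses. Not reached: highest tested concentration assigned. GI50: concentration for 50% inhibition of growth. At the TGI there is no net growth.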

What was measured:
Experiment in all cases: NCI-60 cell line screen, 48 h; in the data active means GI50 below about 0.43 µM; inactive means the rest
[1] = test system: OVCAR-5 ovarian
[2] = test system: MALME-3M melanoma
[3] = test system: NCI-H23 lung
[4] = test system: OVCAR-8 ovarian
[5] = test system: UACC-257 melanoma
[6] = test system: UACC-62 melanoma
[7] = test system: MOLT-4 leukemia
[8] = test system: CAKI-1 renal

CC(=O)CCC1(c2ccccc2)OC(=O)C(C#N)=C1c1ccccc1 (stereo not given)
> 100 µM: TGI [1] | TGI [2] | TGI [3] | TGI [4] | TGI [5] | TGI [6] | TGI [7]

COC(=O)CC1(O)C(=O)OCc2c1cc1n(c2=O)Cc2c-1nc1ccccc1c2OC (stereo not given)
0.165 µM: TGI [7]
4.62 µM: TGI [8]
2.29 µM: TGI [6]
1.68 µM: TGI [3]
> 28.5 µM: TGI [4]
> 100 µM: TGI [1] | TGI [2] | TGI [5]

CC1NOC(=O)C1N=Nc1cccc(Cl)c1 (stereo not given)
86.7 µM: TGI [7]
> 100 µM: TGI [1] | TGI [2] | TGI [3] | TGI [4] | TGI [8] | TGI [5] | TGI [6]

Nc1nc(Cl)c2ncn(CCCC(c3ccccc3)P(=O)(O)O)c2n1 (stereo not given)
> 100 µM: TGI [1] | TGI [2] | TGI [3] | TGI [4] | TGI [8] | TGI [5] | TGI [6]

O=P(CN1CCOCC1)(c1ccccc1)c1ccccc1
> 100 µM: TGI [1] | TGI [2] | TGI [3] | TGI [4] | TGI [8] | TGI [5] | TGI [6] | TGI [7]

Cc1c(Cl)ccc2c1NC(=O)C2(O)CC(=O)c1ccc(Cl)cc1 (stereo not given)
> 54.4 µM: TGI [2]
> 55.9 µM: TGI [5]
> 71.5 µM: TGI [6]
63.7 µM: TGI [7]
> 100 µM: TGI [1] | TGI [3] | TGI [4] | TGI [8]

CC1[C@@]2(CCC(C)(C)O2)O[C@@H]2C=C3C4CCC5Cc6nc7c(nc6C[C@@]5(C)C4C[C@H](O)[C@@]3(C)[C@]12O)CC1CCC2C3=C[C@H]4O[C@@]5(O[C@@](C)(CO)C[C@@H]5O)C(C)[C@@]4(O)[C@]3(C)[C@@H](O)CC2[C@]1(C)C7 (stereo not given in full)
0.358 µM and 0.0847 µM: TGI [5]
1.2 µM: TGI [4]
active: GI50 [1] 0.00586 µM | GI50 [2] 0.0101 µM | GI50 [3] 0.00308 µM | GI50 [4] 0.426 µM | GI50 [8] 0.0195 µM | GI50 [5] 0.0265 µM | GI50 [6] 0.00387 µM | GI50 [7] 0.00141 µM
0.66 µM: TGI [8]

O=C(N/C(=C\c1ccc([N+](=O)[O-])cc1)c1nc2ccccc2s1)c1ccccc1
61.7 µM: TGI [3]
> 100 µM: TGI [1] | TGI [2]
48 µM: TGI [7]
48.3 µM: TGI [6]
85.2 µM: TGI [5]
95.8 µM: TGI [8]
64.2 µM: TGI [4]

COc1ccc(/C=C/C(=O)c2c(-c3ccccc3)nn(C)c(=O)c2N2CC2C)cc1 (stereo not given)
71.2 µM: TGI [6]
> 100 µM: TGI [1] | TGI [2] | TGI [4] | TGI [8] | TGI [5] | TGI [7]
50.7 µM: TGI [3]

N#C/C(=C\c1ccc(O)cc1)C(N)=O
> 100 µM: TGI [1] | TGI [2] | TGI [3] | TGI [4] | TGI [8] | TGI [5] | TGI [6] | TGI [7]

COC(=O)C1=NC(=S)NC(c2ccccc2)C1c1nc2ccccc2o1 (stereo not given)
> 50 µM: TGI [1] | TGI [2] | TGI [3] | TGI [4] | TGI [8] | TGI [5] | TGI [6] | TGI [7]

Cc1cc(Cl)ccc1N=C1NC(=O)C(CC(=O)Nc2cccc(Cl)c2)S1 (stereo not given)
87.4 µM: TGI [1]
> 100 µM: TGI [2] | TGI [3] | TGI [4] | TGI [8] | TGI [5] | TGI [6]

CCCC1C[C@H]2CCCCN2[C@H]2CCCN12 (stereo not given in full)
> 100 µM: TGI [1] | TGI [2] | TGI [3] | TGI [4] | TGI [8] | TGI [5] | TGI [6] | TGI [7]

C[N+](C)(C)CC1CCC(C[N+](C)(C)C)C1=NO (stereo not given)
> 100 µM: TGI [2] | TGI [3] | TGI [4] | TGI [5] | TGI [6] | TGI [7]

COC(=O)C(=O)C(C(=O)C(=O)Nc1ccc([N+](=O)[O-])cc1)c1nc2ccccc2[nH]c1=O (stereo not given)
> 100 µM: TGI [2] | TGI [3] | TGI [4] | TGI [8] | TGI [5] | TGI [6] | TGI [7]

Cc1cc(N(CCC#N)CCC#N)ccc1/C=C(\NC(=O)/C=C/c1ccccc1)C(=O)Nc1ccccc1Cl
> 100 µM: TGI [1] | TGI [2] | TGI [3] | TGI [4] | TGI [8] | TGI [5] | TGI [6] | TGI [7]

C=CCNC(=S)NNC(=O)c1c(C)nc2sccn12
> 100 µM: TGI [1] | TGI [2] | TGI [3] | TGI [4] | TGI [8] | TGI [5] | TGI [6] | TGI [7]

COc1cc2c(oc(=O)c3c4occc4cc(OC)c23)c2cccc(O)c12
> 100 µM: TGI [1] | TGI [2] | TGI [3] | TGI [4] | TGI [8] | TGI [5] | TGI [6] | TGI [7]

COc1ccc(/C=C/C(=N\NC(=O)c2ccccc2)c2sc(Nc3ccc([N+](=O)[O-])cc3)nc2C)cc1OC
> 100 µM: TGI [1] | TGI [7]
43.1 µM: TGI [2]
27 µM: TGI [4]
6.78 µM: TGI [6]
32.8 µM: TGI [8]
28.1 µM: TGI [5]

CCOc1ccc(NC(=O)CC2SC(=Nc3ccc(C)cc3)NC2=O)cc1 (stereo not given)
77.6 µM: TGI [7]
> 100 µM: TGI [1] | TGI [2] | TGI [3] | TGI [4] | TGI [5] | TGI [6]
